Patent US20200022964A1, “COMPOSITIONS AND METHODS FOR TREATMENT OF INFLAMMATORY AUTOIMMUNE DISEASES” (New York University, priority 2018, published 2020)

Tests used:
cPLA2 = target: T1, cPLA2 (Mus musculus, UniProt P47713); assay: CETSA assay in RAW264.7 cells; format: binding; design: endogenous in cells; host or cells: RAW264.7; conditions: for EC50: CETSA at 49° C., 0.001 μM to 100 μM, read-out: EC50 of prevention of cPLA2 denaturation (isothermal dose response)
T1 sequence (P47713 1-748): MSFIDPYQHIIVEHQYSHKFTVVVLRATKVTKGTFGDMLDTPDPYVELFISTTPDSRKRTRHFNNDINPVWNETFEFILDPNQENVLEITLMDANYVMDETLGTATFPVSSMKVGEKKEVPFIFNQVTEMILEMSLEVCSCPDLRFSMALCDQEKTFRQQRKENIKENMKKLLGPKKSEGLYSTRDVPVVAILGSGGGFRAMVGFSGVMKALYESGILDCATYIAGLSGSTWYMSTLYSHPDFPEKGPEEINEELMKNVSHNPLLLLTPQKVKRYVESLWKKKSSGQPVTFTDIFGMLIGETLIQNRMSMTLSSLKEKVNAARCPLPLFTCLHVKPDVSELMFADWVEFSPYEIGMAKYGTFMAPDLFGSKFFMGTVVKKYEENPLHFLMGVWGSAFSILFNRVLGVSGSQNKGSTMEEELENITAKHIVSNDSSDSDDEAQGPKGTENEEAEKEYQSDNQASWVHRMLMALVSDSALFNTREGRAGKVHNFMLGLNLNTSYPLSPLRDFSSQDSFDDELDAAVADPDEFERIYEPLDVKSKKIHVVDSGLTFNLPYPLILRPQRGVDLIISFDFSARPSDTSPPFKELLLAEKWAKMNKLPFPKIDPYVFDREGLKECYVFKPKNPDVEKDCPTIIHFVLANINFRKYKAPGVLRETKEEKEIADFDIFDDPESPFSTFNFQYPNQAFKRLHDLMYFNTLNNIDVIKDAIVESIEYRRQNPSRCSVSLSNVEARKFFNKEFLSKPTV
Method: CETSA assay. RAW264.7 cells were treated with FFD (10 μM)/TFD (1 μM) for 1 hour in a 37° C. incubator with 5% CO2. Cells were harvested and divided equally into different tubes, after which the cells were heated to different temperatures for 3 minutes. After lysis via 3 repeated freeze-thaw cycles, samples underwent centrifugation at 20000 g and supernatants were collected for analysis. For the isothermal dose response, a series of ten-fold change concentrations (ranged from 0.001 μM to 100 μM) of FFD/TFD were used to treat cells and no variation in temperature was introduced. The remaining steps are the same as previously reported^5.

TNF-α/NF-κB pathway = assay: TNF-tg:NF-κB-Luc double mutant mice, luciferase imaging by IVIS; format: in vivo; conditions: for in vivo inhibition of the TNF-α/NF-κB pathway: FFD 2 or 10 mg/kg, TFD 10 or 50 mg/kg orally for 7 days; for TNF-tg:NF-κB activated luciferase in vivo: third round screen, treatment for 7 days
Text: In vitro and in vivo screen of FDA-approved drug library. NF-κB-bla THP-1 cell line in which NF-κB beta-lactamase reporter gene was stably integrated, RAW 264.7 macrophages in which NF-κB luciferase reporter gene was transiently transfected, and TNF-tg:NF-κB-Luc double mutant reporter mice were employed to screen the drug library.
Screening and confirming the drugs' anti-TNF activity in vivo. TNF-tg mice and NF-κB luc mice were purchased from Jackson Laboratory and housed in Skirball Animal Facility of New York University Langone Medical Center. All animal experiments have been approved by Institutional Animal Care and Use Committee (IACUC) of New York University School of Medicine. We generated the TNF-tg/NF-κB-Luc mice by mating TNF-tg mice with NF-κB-Luc mice. After genotypes were confirmed by genotyping and bioluminescence via IVIS, the TNF-tg/NF-κB-Luc mice were orally treated daily with one of the 8 drugs selected in screen two for 7 days. The luciferase activity was detected by IVIS 15 minutes after the injection of D-Luciferin (LUCK-1G, Gold biotechnology).

IκB-α = assay: Phosphorylation of IκB-α in vivo (data not shown)
[1] = system: TNF-α-activated NF-κB reporter gene; assay: NF-κB luciferase reporter in control and cPLA2 knockout Raw264.7 cells; format: cell-based
Method: Screening FDA approved drugs in vitro. NF-κB-bla THP-1 cell line (K1662, Invitrogen) was cultured in 96-well plates and FDA approved drugs (10 μM, L1300, Selleckchem) were added and cultured overnight. Next day, cells were incubated with TNF-α (10 ng/ml, PHC3015, Invitrogen) for 6 hours and LiveBLAzer™ FRET-B/G Loading Kit with CCF2-AM (K1095, Invitrogen) was used to detect the β-lactamase activity via SpectraMax i3x system (5025027A Molecular Devices) with excitation wavelength at 409 nm and emission wavelengths at 520 nm or 470 nm. This process was performed in triplicate. Subsequently, the drugs from first screening that could inhibit TNF-α induced NF-κB activity underwent further screening by NF-κB luciferase assay. After transfection with NF-κB luciferase reporter gene and Renilla plasmids for 8 hours, cells were treated with drugs (10 μM) overnight, followed by TNF-α (10 ng/ml) stimulation for 6 hours, then bioluminescence was measured by Dual-Luciferase® Reporter Assay kit (E1910, Promega). The data were analyzed by Graphpad Prism software (GraphPad Software, San Diego, Calif.).
Knock out of cPAL2 by CRISPR-Cas9. Knockout cells were generated in accordance with a previously published protocol. gRNA was inserted into the lentiCRISPR v2 vector. Packaging the inserted vector into lentivirus was completed by co-transfecting the lentiCRISPR v2, VSVG and ΔR6.7 in 293T cells. After packaging, we transfected the virus into RAW264.7 cells over 8 hours. Puromycin (2 μg/ml) was used to select the stably transfected RAW264.7 cells

p38 or ERK1/2 = assay: Western blot of TNF activated phosphorylation of p38 and ERK1/2 in BMDMs; format: cell-based, mice; conditions: TNF-α 10 ng/mL; FFD 10 μM
Method: Primary bone marrow derived macrophages (BMDMs) extraction. BMDMs were isolated from C57BL/6 and TNF-tg mice. After mice were sacrificed by cervical dislocation, the tibia and femur were isolated and both ends of the bones were cut to open the medullary cavity. Bone marrow cells were collected by centrifuge at 13000 g for 90 seconds and seeded in 6-well plates. Prior to their use in experiments, M-CSF (10 ng/ml, 576406, Biolegend) was added for 6 days to the BMDM culture medium.
Western blot. After protein samples were prepared, samples were separated by SDS-PAGE and transferred to a nitrocellulose (NC) membrane (162-0115, BIO-RAD) using a wet transfer system. Membrane was blocked in 5% (w/v) non-fat milk in TBST for half an hour at room temperature, followed by incubation with appropriate primary antibody overnight at 4° C. After washing, appropriate secondary antibody was added for 1 hour at room temperature. The bands on the membrane were developed by chemiluminescent (ECL) substrate and visualized by GelDoc system.

NF-κB p65 = conditions: TNF-α 10 ng/mL; FFD 10 μM, TFD 1 μM

Structure (SMILES)	EC50 (cPLA2)	in vivo inhibition of the TNF-α/NF-κB pathway (TNF-α/NF-κB pathway)	TNF-tg:NF-κB activated luciferase in vivo (TNF-α/NF-κB pathway)	phosphorylation of NF-κB p65 upstream mediator IκB-α in vivo (IκB-α)	inhibition of TNF-α-activated NF-κB reporter gene in cPLA2 knockout cells ([1]; cPLA2 knockout cells)	anti-TNF/NF-κB activity in cPLA2 knockout cells transfected with cPLA2 S505A ([1]; point mutant Ser-505-Ala)	anti-TNF/NF-κB activity in cPLA2 knockout cells transfected with a cPLA2 expression plasmid ([1]; re-established expression of cPLA2)	phosphorylation of p38 or ERK1/2 (p38 or ERK1/2)	TNF-α-induced nuclear translocation and DNA-binding activity of p65 (NF-κB p65)	Tm of cPLA2 (CETSA melt curve) (cPLA2; RAW264.7 cells, FFD 10 μM, TFD 1 μM, 1 hour, control DMSO 46.09)
CC(C)(C(=O)O)c1ccc(C(O)CCCN2CCC(C(O)(c3ccccc3)c3ccccc3)CC2)cc1 (stereo not shown) [fexofenadine]	102 nM	dose-dependent inhibition	effectively inhibit	inhibited	lost its inhibition	could not rescue	reinstated	did not affect	inhibited	–
CC(C)(C)c1ccc(C(O)CCCN2CCC(C(O)(c3ccccc3)c3ccccc3)CC2)cc1 (stereo not shown) [terfenadine]	1.45 nM	dose-dependent inhibition	effectively inhibit	–	–	–	–	–	–	49.08 °C
